From US10494378B2, “Fused ring pyrimidine compound, intermediate, and preparation method, composition and use thereof” (GUANGZHOU MAXINOVEL PHARMACEUTICALS CO., LTD., priority 2015, dated 2019)

How the values were obtained:
JAK2 kinase = target: T1, JAK2 kinase (Homo sapiens, UniProt O60674); assay: IC50 evaluation assay on JAK2 kinase inhibition (Caliper); format: biochemical; conditions: adenosine triphosphate at Km; 1 hour at 28° C.; average of two tests; read-out: IC50 (nM) inhibiting JAK 2 kinase
T1 construct: purchased Carna 08-045
Protocol: (§1) 1. The compound was dissolved in 100% DMSO, diluted into solutions with appropriate concentration gradients with water according to experimental requirement, and added to a 384-well plate.
(§2) 2. JAK2 kinase (Carna, Cat. No. 08-045, Lot. No. 07CBS-1927) and JAK3 kinase (Carna, Cat. No. 08-046, Lot. No. 08CBS-0371) were diluted to the optimum concentration with the following buffer solution: 50 mM HEPES, pH 7.5, 0.0015% Brij-35, 2 mM DTT. JAK1 kinase (Carna, Cat. No. 08-144, Lot. No. 11CBS-0144D) was diluted to the optimum concentration with the following buffer solution: 25 mM HEPES pH 7.5, 0.01% Brij-35, 2 mM DTT, 0.01M Triton. Transfer to the 384-well plate and incubated with the compound for a period of time.
(§3) 3. […] The substrate of JAK1 was diluted to the optimum concentration with the following buffer: 25 mM HEPES, pH 7.5, 0.01% Brij-35, 10 mM MgCl2, 0.01M Triton, adenosine triphosphate at Km. Add to the 384-well plate to initiate there action and react for 1 hour at 28° C.
(§4) 4. 1 Eq. of sulfuric acid solution was added to terminate the reaction, the conversion rate was read with Caliper Reader. The inhibition rate was calculated as the average of two tests.

JAK3 kinase = target: T2, JAK3 kinase (Homo sapiens, UniProt P52333); assay: IC50 evaluation assay on JAK3 kinase inhibition (Caliper); format: biochemical; conditions: adenosine triphosphate at Km; 1 hour at 28° C.; average of two tests; read-out: IC50 (nM) inhibiting JAK 3 kinase
T2 construct: purchased Carna 08-046
T2 sequence (P52333 1-1124): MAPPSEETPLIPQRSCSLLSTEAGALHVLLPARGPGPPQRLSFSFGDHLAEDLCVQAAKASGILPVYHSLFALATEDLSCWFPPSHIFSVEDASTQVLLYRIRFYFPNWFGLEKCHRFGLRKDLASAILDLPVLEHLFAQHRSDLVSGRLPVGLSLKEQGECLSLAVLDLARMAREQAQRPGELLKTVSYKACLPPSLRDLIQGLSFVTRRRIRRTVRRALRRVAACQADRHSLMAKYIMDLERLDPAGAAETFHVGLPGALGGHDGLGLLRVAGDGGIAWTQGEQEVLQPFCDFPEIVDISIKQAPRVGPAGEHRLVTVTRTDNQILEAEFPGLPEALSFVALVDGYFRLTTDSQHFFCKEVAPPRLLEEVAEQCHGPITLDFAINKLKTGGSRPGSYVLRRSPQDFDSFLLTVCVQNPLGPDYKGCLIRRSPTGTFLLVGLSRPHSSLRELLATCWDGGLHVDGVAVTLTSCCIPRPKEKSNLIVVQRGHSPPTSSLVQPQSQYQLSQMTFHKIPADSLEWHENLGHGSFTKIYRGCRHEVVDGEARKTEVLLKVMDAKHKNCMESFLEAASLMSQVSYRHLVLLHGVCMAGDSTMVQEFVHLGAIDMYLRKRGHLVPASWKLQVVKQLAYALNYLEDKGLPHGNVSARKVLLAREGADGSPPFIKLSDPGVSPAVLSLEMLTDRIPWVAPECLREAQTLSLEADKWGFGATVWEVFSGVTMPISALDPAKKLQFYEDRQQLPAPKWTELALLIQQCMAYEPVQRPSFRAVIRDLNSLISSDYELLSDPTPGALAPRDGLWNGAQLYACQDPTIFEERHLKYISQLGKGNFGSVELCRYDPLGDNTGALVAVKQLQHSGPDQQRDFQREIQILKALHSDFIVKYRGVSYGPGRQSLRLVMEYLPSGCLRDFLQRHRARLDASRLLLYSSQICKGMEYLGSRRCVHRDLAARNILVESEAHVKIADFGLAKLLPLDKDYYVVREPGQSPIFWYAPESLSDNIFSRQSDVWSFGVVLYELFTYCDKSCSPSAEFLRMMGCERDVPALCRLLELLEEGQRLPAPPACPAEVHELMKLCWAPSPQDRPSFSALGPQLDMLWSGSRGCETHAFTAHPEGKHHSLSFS
Protocol: as §1, §2, §3, §4

T1 sequence (O60674 whole entry): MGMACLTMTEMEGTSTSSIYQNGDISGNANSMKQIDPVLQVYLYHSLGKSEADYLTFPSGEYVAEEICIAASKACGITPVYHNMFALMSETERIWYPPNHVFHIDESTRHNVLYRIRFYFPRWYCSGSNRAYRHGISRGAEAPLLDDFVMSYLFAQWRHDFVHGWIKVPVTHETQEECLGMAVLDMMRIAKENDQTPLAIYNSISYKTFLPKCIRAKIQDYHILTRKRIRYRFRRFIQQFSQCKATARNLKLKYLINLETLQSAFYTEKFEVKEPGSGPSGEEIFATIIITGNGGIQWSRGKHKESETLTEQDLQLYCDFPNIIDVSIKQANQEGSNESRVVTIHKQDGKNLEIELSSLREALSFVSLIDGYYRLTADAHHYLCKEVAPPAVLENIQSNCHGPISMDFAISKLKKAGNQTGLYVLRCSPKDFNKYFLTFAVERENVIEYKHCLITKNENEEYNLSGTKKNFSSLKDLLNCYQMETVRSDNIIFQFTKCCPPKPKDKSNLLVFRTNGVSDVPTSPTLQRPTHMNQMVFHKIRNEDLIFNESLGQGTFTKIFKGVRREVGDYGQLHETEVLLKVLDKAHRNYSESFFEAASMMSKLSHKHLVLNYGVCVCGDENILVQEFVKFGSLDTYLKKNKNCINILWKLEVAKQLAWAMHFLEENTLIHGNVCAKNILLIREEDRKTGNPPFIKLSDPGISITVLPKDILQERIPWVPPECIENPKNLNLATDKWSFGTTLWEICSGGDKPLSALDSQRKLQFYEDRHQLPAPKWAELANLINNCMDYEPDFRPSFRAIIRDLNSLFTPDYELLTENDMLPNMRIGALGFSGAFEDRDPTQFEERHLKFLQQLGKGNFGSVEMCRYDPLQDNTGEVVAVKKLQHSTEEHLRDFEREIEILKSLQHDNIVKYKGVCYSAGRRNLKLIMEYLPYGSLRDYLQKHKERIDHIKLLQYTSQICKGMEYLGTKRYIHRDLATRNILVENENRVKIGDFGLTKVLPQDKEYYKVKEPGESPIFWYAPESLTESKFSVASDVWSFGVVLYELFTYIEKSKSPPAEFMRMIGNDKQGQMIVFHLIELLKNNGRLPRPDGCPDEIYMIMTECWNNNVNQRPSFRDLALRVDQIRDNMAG

COc1cc(F)ccc1-c1c(C)sc2cnc(Nc3cnn(C4CCN(CCO)CC4)c3)nc12 [Compound 34, 2-[4-(4-{[7-(4-fluoro-2-methoxyphenyl)-6-methylthieno[3,2-d]pyrimidinyl-2-yl]amino}-1H-pyrazol-1-yl)-piperidinyl-1-yl]-1-ethanol]
IC50 (JAK2 kinase): 0.71 nM
IC50 (JAK3 kinase): 1.1 nM
